Data set [1] concerns the target T1, 5HT4B receptors (serotonin 4B receptors) (Homo sapiens, UniProt Q13639).
T1 construct: expressed in transfected cells
As to conditions: value in brackets after the IC50; cited from earlier work.

Data set [2] is described as follows: Chemical stability in potassium phosphate buffer. It counts as physicochemical. As to conditions: 100 mM potassium phosphate buffer, pH 7.4 at 37° C. for up to 30 minutes. The procedure: FIG. 5B is a plot of the results of a chemical stability study of test articles in a 100 mM potassium phosphate buffer, pH 7.4 at 37° C. for up to thirty minutes.
Data set [3] has as its target T2, dopamine 2L receptors (Homo sapiens, UniProt P14416). As to the kind of experiment: Competition binding assay (dopamine 2L receptors), [3H]methylspiperone. Set-up: expressed in transfected cells. Particulars: for Fold-change Relative to Parent: IC50 relative to metoclopramide, D2L binding. The procedure:
[^3H] Methylspiperone was diluted in assay buffer to a final concentration of 0.4 nM. To start the assay, 1 uL of compound was added into 96-well v-bottom plates, followed by the addition of 50 uL of diluted membrane preparation, then finally diluted [^3H] Methylspiperone was added. The assay mixture was incubated for 60 minutes at room temperature with shaking. Following incubation, bound [^3H] methylspiperone on 5% PEI soaked GF/B filter plates using a Filtermate Harvester (Perkin Elmer) were then washed four times with ice cold wash buffer (50 mM Tris-HCl, pH 7.5). Filter plates were air dried for two minutes, and then 50 uL of MicroScint-20 was added into each well. Radioactivity counts were quantified using a Top Count plate reader (Perkin Elmer). Data was analyzed using one-site binding competition non-linear regression curve fitting on GraphPad Prism.

Data set [4] deals with T1, 5HT4B receptors (serotonin 4B receptors). As to the kind of experiment: Competition binding assay (serotonin 4B receptors), [3H]GR113808. Particulars: for Fold-change Relative to Parent: IC50 relative to metoclopramide, 5HT4B binding; for IC50: [3H]GR113808 competition, HEK 293 membranes expressing 5HT4B.
In data set [5] the target is T3, 5HT3A receptors (serotonin 3A receptors) (Homo sapiens, UniProt P46098).
T3 construct: expressed in transfected cells
T3 sequence (P46098 24-478): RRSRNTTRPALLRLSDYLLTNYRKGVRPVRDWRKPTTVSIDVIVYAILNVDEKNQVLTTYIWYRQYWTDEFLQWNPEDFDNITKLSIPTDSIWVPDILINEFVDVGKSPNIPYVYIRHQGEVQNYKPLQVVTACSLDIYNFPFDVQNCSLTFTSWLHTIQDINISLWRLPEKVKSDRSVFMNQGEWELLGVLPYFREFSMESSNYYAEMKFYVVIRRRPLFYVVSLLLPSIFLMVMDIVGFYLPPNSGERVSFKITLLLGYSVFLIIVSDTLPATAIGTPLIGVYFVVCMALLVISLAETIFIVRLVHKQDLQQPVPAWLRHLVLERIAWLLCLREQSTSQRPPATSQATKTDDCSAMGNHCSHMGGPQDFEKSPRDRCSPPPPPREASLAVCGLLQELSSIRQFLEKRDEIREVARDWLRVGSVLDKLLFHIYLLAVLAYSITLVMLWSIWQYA
As to the kind of experiment: Competition binding assay (serotonin 3A receptors), [3H]GR65630. Particulars: for Fold-change Relative to Parent: IC50 relative to metoclopramide, 5HT3A binding; for IC50: [3H]GR65630 competition, HEK 293 membranes expressing 5HT3A. How it is done:
[^3H] […] To start the assay, 1 uL of compound was added into 96-well v-bottom plates, followed by the addition of 50 uL of diluted membrane preparation, then finally diluted [^3H] […] The assay mixture was incubated for 60 minutes at room temperature with shaking. Following incubation, bound [^3H] […] Filter plates were air dried for two minutes, and then 50 uL of MicroScint-20 was added into each well. Radioactivity counts were quantified using a Top Count plate reader (Perkin Elmer). Data was analyzed using one-site binding competition non-linear regression curve fitting on GraphPad Prism.

Data set [6] concerns the target T4, CYP2D6 (Homo sapiens, UniProt P10635). As to the kind of experiment: Metabolic stability in human recombinant CYP2D6 enzyme. In kind it is in vitro ADME. As to conditions: 1 μM, 100 pmol/mL CYP2D6, up to 30 min, 37° C. Set-up: purchased Xenotech, LLC.
For the next data set, the target named is T5, dopamine 2S receptor (Homo sapiens, UniProt P14416).
T5 construct: host or cells: CHO-K1 (PathHunter eXpress β-arrestin cells)
The data set is described as follows: β-Arrestin functional assay (dopamine), antagonist mode. In kind it is cell-based. As to conditions: for Fold-change Relative to Parent: IC50 relative to metoclopramide, D2S β-arrestin; for IC50: β-arrestin interaction, CHO-K1 cells expressing D2S, dopamine at EC80 (400 nM).

The target of data set [7] is T4, CYP2D6. Particulars: cited from earlier work.
Data set [8] relates to Sprague-Dawley rat hepatocytes. As to the kind of experiment: MetID determination in rat hepatocytes. In kind it is in vitro ADME. The procedure: (§1) Cryopreserved human and Sprague-Dawley rat hepatocytes were thawed in a 37° C. water bath. […] Samples were obtained from separate plates for each time point during the incubation. At each sampling time, the plates were removed from the incubator, quenched by adding 100 μL cold acetonitrile, and placed in an ice bath until centrifugation at 4,000 rpm for 30 minutes at 4° C. Supernatants were stored at or below −70° C. until LC-MS/MS analysis could be conducted. The liquid chromatography system used was Agilent 1100 Autosampler, Binary Pump, DAD and Column Enclosure. Tandem mass spectrometry was conducted using a Thermo DECA XP MAX Ion Trap Mass Spectrometer. The ion source was Electrospray (+) and the LC column used was a Varian, Polaris 5 C18-A (250×2.1 mm, 5 micron) column.
(§2) Metabolic pathways of metoclopramide and conjugates were determined in rat and human hepatocytes. N-dealkylation was the major metabolic pathway for metoclopramide in rats, and metabolism in human hepatocytes was minimal. […] FIG. 2 and FIG. 3 show the metabolic pathway of for mPEG1-N-metoclopramide and mPEG4-N-metoclopramide, respectively. […] In this figure, different metabolites for each conjugate are denoted with the “M” and correspond to the designation provided in the figure for a given conjugate. For example, metabolite M1 for mPEG1-N-metoclopramide in Table 6 corresponds to M1 in FIG. 2, metabolite M2 for mPEG4-N-metoclopramide in Table 6 corresponds to M2 in FIG. 3 and metabolite M3 mPEG8-N-metoclopramide in Table 6 corresponds to M3 in FIG. 4.

Data set [9] deals with T2, dopamine 2L receptors. As to conditions: read-out: expected IC50; expected value; cited from earlier work.
A further data set can be described thus: in vivo. As to conditions: male, Sprague Dawley, rat, plasma.
A short description of data set [10]: Rat PK (intravenous and oral).
Experimental: (§3) Rat pharmacokinetic (“PK”) characterization was conducted in male Sprague Dawley Rats (Rattus Norvegicus) weighing between 210-260 gm (Charles River Laboratories (Hollister, Calif.)). Rats were fed a standard diet and water was available ad-libidum at all times. […] Animals were dosed either orally (2.5 mg/Kg) via gavage or intravenously (0.5 mg/kg) via the jugular vein cannula. Blood samples (˜0.15 mL) were collected through carotid artery cannula at respective time points and transferred immediately into K2EDTA-coated tubes (that contain quenching media-acetic acid, PMSF and Dichlorvos) and placed on ice. The samples were centrifuged within thirty minutes after collection at 10,000 RPM for five minutes and the resulting plasma was separated. Plasma were transferred into microfuge tubes and placed on dry ice immediately. The plasma samples were stored at approximately −70° C. until shipped on dry ice for Bioanalysis by LC/MS/MS. Urine samples were collected using metabolic cages into a tube containing citric acid (4 mg for 0-4 and 4-8 hr interval and 16 mg for 8-24 hr interval) on wet ice at the intervals specified in the study design. After the completion of urine collection at each interval, each cage was rinsed with 2 mL of deionized water (1 mL each time). The rinse was collected in the separate labeled container (containing 2 mg of citric acid) as the urine. Following this rinse another 2 ml rinse was carried out with ethanol (1 ml each time). The rinse was also collected in the separate labeled container as the urine. Samples were stored frozen at −70° C. until bioanalysis by LC/MS/MS was performed.
(§4) Pharmacokinetic parameters were determined by non-compartmental analysis using Phoenix®WinNonlin® (Version 6.3; Pharsight Corp., Mountain View, Calif.). Nominal doses and sampling times were used for the analysis. Concentrations reported as BLQ were treated as missing unless they were pre-dose; then they were set to zero. Maximum plasma concentration (Cmax) and time of observed maximum plasma analyte concentration (Tmax) were generated by Phoenix®WinNonlin®, directly from the inputed dataset. […] Area under the plasma concentration-time curve from time 0 to infinity (AUCinf) was calculated as the sum of AUClast and the last observed concentration divided by k. Total plasma clearance (CL) was calculated as Dose/AUCinf. Apparent volume of distribution at steady state (Vss) was calculated as MRTinf*CL, where MRT is the mean residence time.
The test system of the next data set is human hepatocytes. The data set is described as follows: MetID determination in human hepatocytes. In kind it is in vitro ADME. The procedure: as §1, §2
Data set [11] deals with T3, 5HT3A receptors (serotonin 3A receptors). As to conditions: value in brackets after the IC50; cited from earlier work.
[12] abbreviates: [3H]methylspiperone competition, HEK 293 membranes expressing D2L, read-out: IC50.
The mark [13] stands for this setting: preliminary run that was not quality controlled, read-out: IC50, preliminary run.
Setting [14] is: incubation of 10 μM metoclopramide, parent and its metabolites M (FIG. 1).

Where “and” joins values, the source holds several entries; their conditions need not be identical. Equal values may be shown once. Read-outs that look alike come from different tables or passages of the source. Marks after values point to notes of the source that are not given here.

T5 sequence (P14416 1-414 isoform P14416-2): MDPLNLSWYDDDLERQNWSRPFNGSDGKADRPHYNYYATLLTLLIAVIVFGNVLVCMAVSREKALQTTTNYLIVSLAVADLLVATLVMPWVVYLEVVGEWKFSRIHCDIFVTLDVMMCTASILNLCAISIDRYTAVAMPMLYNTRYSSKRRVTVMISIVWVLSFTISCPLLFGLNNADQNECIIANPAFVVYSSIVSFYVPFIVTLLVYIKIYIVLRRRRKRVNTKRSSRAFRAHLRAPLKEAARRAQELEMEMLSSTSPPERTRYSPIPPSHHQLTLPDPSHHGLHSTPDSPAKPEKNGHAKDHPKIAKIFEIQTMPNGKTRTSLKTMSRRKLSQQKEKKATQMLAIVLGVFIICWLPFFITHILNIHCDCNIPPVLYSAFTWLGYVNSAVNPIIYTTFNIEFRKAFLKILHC
T1 sequence (Q13639 whole entry): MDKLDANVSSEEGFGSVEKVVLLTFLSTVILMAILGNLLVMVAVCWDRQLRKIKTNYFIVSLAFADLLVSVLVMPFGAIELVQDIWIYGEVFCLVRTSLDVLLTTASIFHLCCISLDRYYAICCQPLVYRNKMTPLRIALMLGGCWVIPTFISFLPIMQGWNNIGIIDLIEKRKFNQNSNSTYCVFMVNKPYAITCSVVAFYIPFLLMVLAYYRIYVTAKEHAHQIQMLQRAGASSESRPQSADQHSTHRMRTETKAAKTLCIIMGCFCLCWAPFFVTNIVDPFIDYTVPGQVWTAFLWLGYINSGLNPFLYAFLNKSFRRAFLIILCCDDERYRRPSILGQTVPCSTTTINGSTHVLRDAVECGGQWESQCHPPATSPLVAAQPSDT
T4 sequence (P10635 whole entry): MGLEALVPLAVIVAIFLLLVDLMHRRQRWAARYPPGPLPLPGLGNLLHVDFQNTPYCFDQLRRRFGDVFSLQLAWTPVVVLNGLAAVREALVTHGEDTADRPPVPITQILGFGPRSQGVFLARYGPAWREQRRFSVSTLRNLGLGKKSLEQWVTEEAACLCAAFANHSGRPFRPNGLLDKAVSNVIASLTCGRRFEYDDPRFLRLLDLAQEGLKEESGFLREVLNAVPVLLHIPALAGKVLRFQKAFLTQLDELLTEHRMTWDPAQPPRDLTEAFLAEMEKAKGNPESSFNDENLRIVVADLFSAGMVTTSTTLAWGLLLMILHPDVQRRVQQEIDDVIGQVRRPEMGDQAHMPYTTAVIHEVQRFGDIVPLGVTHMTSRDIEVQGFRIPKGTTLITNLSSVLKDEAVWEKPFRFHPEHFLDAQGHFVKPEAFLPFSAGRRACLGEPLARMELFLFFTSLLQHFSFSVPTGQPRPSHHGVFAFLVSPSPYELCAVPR
T2 sequence (P14416 whole entry): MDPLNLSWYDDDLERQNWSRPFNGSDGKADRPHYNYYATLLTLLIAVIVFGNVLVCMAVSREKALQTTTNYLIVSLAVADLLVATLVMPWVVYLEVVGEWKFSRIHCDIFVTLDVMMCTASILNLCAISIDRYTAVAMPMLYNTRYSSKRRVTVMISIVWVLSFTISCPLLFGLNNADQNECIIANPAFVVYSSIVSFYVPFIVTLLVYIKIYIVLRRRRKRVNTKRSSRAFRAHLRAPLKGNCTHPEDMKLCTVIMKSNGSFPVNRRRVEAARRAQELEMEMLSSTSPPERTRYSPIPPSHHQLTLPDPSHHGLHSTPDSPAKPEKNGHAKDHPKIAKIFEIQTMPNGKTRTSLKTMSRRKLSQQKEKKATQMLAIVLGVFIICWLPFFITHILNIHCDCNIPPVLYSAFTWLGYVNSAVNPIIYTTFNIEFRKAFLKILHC
Experimental for in vivo: as §3, §4

Consider `CN1[C@@H]2CC[C@H]1C[C@@H](OC(=O)c1c[nH]c3ccccc13)C2` [Tropisetron], for which, in data set [1], the pKi is 8.5-8.8.
The IC50 is the point on the concentration scale where inhibition reaches its midpoint. For the compound `CCN(CCNC(=O)c1cc(Cl)c(N)cc1OC)CCOCCOCCOCCOCCOC` [mPEG5-N-Metoclopramide], the chemical stability entry in data set [2] was “chemically stable”. For the same compound, the “Fold-change Relative to Parent” value is 98.5 on dopamine 2L receptors [3], 3.8 in [4], 156 in data set [5] and 44.1 at dopamine 2S receptor. Moreover, the IC50 on dopamine 2L receptors [3] (setting [12]) stood at 8.29 µM; on dopamine 2L receptors [3] (setting [13]) it was 15.1 µM; in data set [4], 58.1 µM; in [5] (read-out: IC50), 0.00107 M; against dopamine 2S receptor, 3.62 µM. For the same compound, on CYP2D6 [6], the “metabolism by human recombinant CYP2D6 enzyme” value is “to a lesser degree than metoclopramide”.
Regarding `CCN(CCNC(=O)c1cc(Cl)c(N)cc1OC)CCOCCOCCOC` [mPEG3-N-Metoclopramide], in data set [2], the chemical stability entry is “chemically stable”. Also, the “Fold-change Relative to Parent” value came to 41 on dopamine 2L receptors [3], 2.1 in [4], 23 in data set [5] and 25 on dopamine 2S receptor. In addition, the IC50 on dopamine 2L receptors [3] (setting [12]) is 3.45 µM; at dopamine 2L receptors [3] (setting [13]) it was 4.65 µM and 13.1 µM; in [4], 31.8 µM; in data set [5] (read-out: IC50), 0.00016 M; against dopamine 2S receptor it was 2.05 µM and 2.06 µM. Further, the “metabolism by human recombinant CYP2D6 enzyme” value at CYP2D6 [6] was “to a lesser degree than metoclopramide”.
Turning to `Fc1ccc([C@@H]2CCNC[C@H]2COc2ccc3c(c2)OCO3)cc1` [paroxetine], the “time-dependent inhibition of CYP2D6 (literature / known)” value on CYP2D6 [7] is on record as “time-dependent inhibitor of CYP2D6”.
A word on the AUC(0-inf): it is total exposure, with the tail of the curve extrapolated. Higher therefore signals high exposure. One may read the MRT inf as a mean duration of stay, worked out from the concentration-time curve. Broadly, the Vd is a proportionality between amount in the body and measured concentration, not a real space. A lower Vd goes with confinement near the circulation. As a reminder, the clearance is a measure of how efficiently the substance is removed, as volume per time. By half-life is commonly meant the time needed for the level to fall by half in the phase considered. The low end stands for fast loss, the high end for slow loss. What is called AUC is the area under the concentration-time curve, a measure of exposure. In general, CL/F refers to the apparent clearance, not corrected for the fraction that reaches the circulation. A word on the Cmax: it is the maximum level reached in the sampled fluid or tissue. By Tmax is commonly meant the time at which the peak concentration occurs. Take `CCN(CC)CCNC(=O)c1cc(Cl)c(N)cc1OC` [Metoclopramide, N-(2-diethylaminoethyl)-2-methoxy-4-amino-5-chlorobenzamide, reference compound]: the “time-dependent inhibition of CYP2D6 (literature / known)” value on CYP2D6 [7] (as reported in the literature) is recorded as “CYP2D6 time-dependent inhibitor”. For the same compound, in data set [8] (setting [14]), the “% of Total Metabolism, Rat Hep 1 hr” value turned out to be 87% and the “% of Total Metabolism, Rat Hep 4 hr” value was determined as 61%. Moreover, in data set [8] (rat hepatocytes), the major metabolic pathway result is recorded as “N-dealkylation”. Also, the chemical stability entry in data set [2] is listed as “chemically stable”. The IC50 at dopamine 2L receptors [9] is 0.54 µM. Besides, in “in vivo” (iv, 0.5 mg/kg), the AUC(0-inf) came out at 66.8 ng·h/mL, the MRT inf is 32.4 min, the distribution volume (Vd) worked out at 4.12 L/kg and the clearance amounted to 126 mL/min/kg. Besides, in “in vivo” (iv, 0.5 mg/kg), the half-life was 30 min. Also, in the data set “in vivo” (po, 2.5 mg/kg), the exposure (AUC) stood at 261 ng·h/mL, the CL/F worked out at 131 mL/min/kg, the Cmax is 166 ng/mL and the Tmax came out at 22.8 min. The CLRen in data set [10] (intravenous, 0.5 mg/kg) was 7.2* mL/min/kg. In data set [10] (oral gavage, 2.5 mg/Kg), the Clast is listed as 8.07 ng/mL and the Tlast was 16 h. The IC50 at dopamine 2L receptors [3] (setting [12]) was 0.0842 µM. At dopamine 2L receptors [3] (setting [13]), the IC50 worked out at 0.932 µM. The “extent of metabolism in human hepatocytes” value in the data set with human hepatocytes (human hepatocytes) is “minimal”. For the same compound, in the data set on human hepatocytes (setting [14]), the “% of Total Metabolism, Human Hep 1 hr” value was 96.8% and the “% of Total Metabolism, Human Hep 4 hr” value worked out at 97.5%. Also, the IC50 in data set [5] (IC50 [M]) is 6.86e-06 M. Also, the IC50 in [5] (IC50 [nM]) came out at 6.86e-06 M. For the same compound, the IC50 against dopamine 2S receptor was 0.0821 µM and 0.0822 µM. In [11], the pKi is 5.9-6.4.

These data come from patent US10434181B2, “Oligomer-containing benzamide-based compounds” (Nektar Therapeutics, priority 2012, dated 2019).
